The results in this text go back to the SangsterLogP compilation.

One series in a line: method code SF-AS, from DOI: 10.1248/cpb.32.4994, PMID: 6534548.
As for `O=C(Cc1ccccc1)Nc1cccc(Br)c1`, the logP (as a rule, a log measure of how a compound divides between an organic and an aqueous phase) was 3.77.

With `CS(=O)(=O)Oc1cccc(NC(=O)Cc2ccccc2)c1`, the logP came out at 2.32.

For the molecule `CCNc1cccc(NC(=O)Cc2ccccc2)c1`, the logP is 2.59.

In the case of `O=C(Cc1ccccc1)Nc1cccc(Cl)c1`, the logP came out at 3.61.

Consider `CC(=O)N(c1ccccc1)c1ccc(C)cc1`, for which the logP turned out to be 3.05.

The molecule `O=C(Cc1ccccc1)Nc1ccc(O)cc1` had a logP of 1.82.

Take `CNc1cccc(NC(=O)Cc2ccccc2)c1`: the logP worked out at 2.31.

In turn, `CC(=O)Oc1cccc(NC(=O)Cc2ccccc2)c1` showed a logP of 2.37.

The molecule `O=C(Cc1ccccc1)Nc1ccc(Cl)cc1` displayed a logP of 3.54.

`Cc1cccc(NC(=O)Cc2ccccc2)c1` gave a logP of 3.14.

Molecule `Nc1cccc(NC(=O)Cc2ccccc2)c1` yielded a logP of 1.59.

`O=C(Cc1ccccc1)Nc1cccc(O)c1` came in with a logP of 2.22.

For `COc1cccc(NC(=O)Cc2ccccc2)c1`, the logP was 2.86.

`O=C(Cc1ccccc1)Nc1cccc([N+](=O)[O-])c1` gave a logP of 2.93.

In turn, `N#Cc1cccc(NC(=O)Cc2ccccc2)c1` yielded a logP of 2.75.

Consider `O=C(Cc1ccccc1)Nc1ccc(F)cc1`, for which the logP amounted to 2.86.

Take `CC(=O)c1ccc(NC(=O)Cc2ccccc2)cc1`: the log partition coefficient (logP) stood at 2.75.

Regarding `O=C(Cc1ccccc1)Nc1cccc(I)c1`, the logP was determined as 3.91.

`O=C(Cc1ccccc1)Nc1cccc(F)c1` showed a logP of 3.1.

`COc1ccc(NC(=O)Cc2ccccc2)cc1` came in with a logP of 2.49.

As for `CC(=O)c1cccc(NC(=O)Cc2ccccc2)c1`, the logP was 2.62.

Another series can be described thus: method code AS, from DOI: 10.1248/cpb.32.4994, PMID: 6534548.
For `O=C(Cc1ccccc1)Nc1ccc(Br)cc1`, the logP came to 3.7.

A further series is described as follows: method code SF-AQ, from DOI: 10.1248/cpb.32.4994, PMID: 6534548.
With `CCc1cccc(N(C(C)=O)c2ccccc2)c1`, the lipophilicity (logP) was 3.47.
